Data from PubChem BioAssay (NCI).
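Following 48 hours of exposure in 96-well plates, responses at five concentrations were used to interpolate endpoints linearly. GI50 marks 50% less growth. At the TGI there is no net growth.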

Assays:
Assay in all cases: NCI anticancer screen, dose series, 48 h
[1] = system: 786-0 renal
[2] = system: A498 renal
[3] = system: A549 NSCLC
[4] = system: ACHN renal
[5] = system: BT-549 breast
[6] = system: CAKI-1 renal
[7] = system: COLO 205 colon
[8] = system: DU-145 prostate
[9] = system: EKVX NSCLC
[10] = system: HCC-2998 colon
[11] = system: HCT-116 colon
[12] = system: HCT-15 colon
[13] = system: HL-60(TB) leukemia
[14] = system: HOP-62 NSCLC
[15] = system: HOP-92 NSCLC
[16] = system: HS 578T breast
[17] = system: HT29 colon
[18] = system: IGROV1 ovarian
[19] = system: KM12 colon
[20] = system: LOX IMVI melanoma
[21] = system: M14 melanoma
[22] = system: MALME-3M melanoma
[23] = system: MCF7 breast
[24] = system: MDA-MB-231 breast
[25] = system: MDA-MB-435
[26] = system: MOLT-4 leukemia
[27] = system: NCI-H226 lung
[28] = system: NCI-H23 lung
[29] = system: NCI-H460 lung
[30] = system: NCI-H522 lung
[31] = system: NCI/ADR-RES ovarian
[32] = system: OVCAR-3 ovarian
[33] = system: OVCAR-4 ovarian
[34] = system: OVCAR-5 ovarian
[35] = system: OVCAR-8 ovarian
[36] = system: PC-3 prostate
[37] = system: RXF 393 renal
[38] = system: SF-268 CNS
[39] = system: SF-295 CNS
[40] = system: SF-539 CNS
[41] = system: SK-MEL-2 melanoma
[42] = system: SK-MEL-28 melanoma
[43] = system: SK-MEL-5 melanoma
[44] = system: SK-OV-3 ovarian
[45] = system: SN12C renal
[46] = system: SNB-19 CNS
[47] = system: SNB-75 CNS
[48] = system: SR leukemia
[49] = system: SW-620 colon
[50] = system: T-47D breast
[51] = system: TK-10 renal
[52] = system: U251 CNS
[53] = system: UACC-257 melanoma
[54] = system: UACC-62 melanoma
[55] = system: UO-31 renal

Oc1c(Cl)cc(Cl)c(Cl)c1Cc1c(O)c(Cl)cc(Cl)c1Cl
GI50 [1]: 1.96 µM
TGI [1]: 11.8 µM
GI50 [2]: 0.419 µM
TGI [2]: 7.12 µM
GI50 [3]: 1.99 µM
TGI [3]: 12.9 µM
GI50 [4]: 2.27 µM
TGI [4]: 31.3 µM
GI50 [5]: 1.26 µM
TGI [5]: 10.3 µM
GI50 [6]: 0.525 µM
TGI [6]: 7.36 µM
GI50 [7]: 2.68 µM
TGI [7]: 15 µM
GI50 [8]: 4.13 µM
TGI [8]: 22.1 µM
GI50 [9]: 0.973 µM
TGI [9]: 16.7 µM
GI50 [10]: 0.584 µM
TGI [10]: 12.9 µM
GI50 [11]: 0.41 µM
TGI [11]: 10.2 µM
GI50 [12]: 0.528 µM
TGI [12]: 13.7 µM
GI50 [13]: 0.678 µM
TGI [13]: 7.96 µM
GI50 [14]: 1.37 µM
TGI [14]: 12.1 µM
GI50 [15]: 0.274 µM
TGI [15]: 0.682 µM
GI50 [16]: 1.03 µM
TGI [16]: 51.3 µM
GI50 [17]: 2.81 µM
TGI [17]: 12.4 µM
GI50 [18]: 1.87 µM
TGI [18]: 23.6 µM
GI50 [19]: 0.953 µM
TGI [19]: 11.5 µM
GI50 [20]: 2.39 µM
TGI [20]: 11.2 µM
GI50 [21]: 1.38 µM
TGI [21]: 13.9 µM
GI50 [22]: 1.66 µM
TGI [22]: 5.93 µM
GI50 [23]: 1.34 µM
TGI [23]: 13.9 µM
GI50 [24]: 1.35 µM
TGI [24]: 5.53 µM
GI50 [25]: 1.93 µM
TGI [25]: 12.8 µM
GI50 [26]: 1.31 µM
TGI [26]: 36.1 µM
GI50 [27]: 2.46 µM
TGI [27]: 13 µM
GI50 [28]: 0.593 µM
TGI [28]: 12 µM
GI50 [29]: 0.534 µM
TGI [29]: 12.5 µM
GI50 [30]: 0.521 µM
TGI [30]: 9.66 µM
GI50 [31]: 0.453 µM
TGI [31]: 10.8 µM
GI50 [32]: 1.34 µM
TGI [32]: 8.47 µM
GI50 [33]: 2.52 µM
TGI [33]: 14 µM
GI50 [34]: 6.14 µM
TGI [34]: 19.1 µM
GI50 [35]: 0.941 µM
TGI [35]: 16.5 µM
GI50 [36]: 0.498 µM
TGI [36]: 10.6 µM
GI50 [37]: 4.04 µM
TGI [37]: 22.4 µM
GI50 [38]: 1.08 µM
TGI [38]: 17.5 µM
GI50 [39]: 0.34 µM
TGI [39]: 2.05 µM
GI50 [40]: 3.39 µM
TGI [40]: 18.8 µM
GI50 [41]: 0.497 µM
TGI [41]: 3.48 µM
GI50 [42]: 2.13 µM
TGI [42]: 15.9 µM
GI50 [43]: 0.712 µM
TGI [43]: 3.04 µM
GI50 [44]: 2.53 µM
TGI [44]: 11.6 µM
GI50 [45]: 0.431 µM
TGI [45]: 22.2 µM
GI50 [46]: 0.908 µM
TGI [46]: 58.9 µM
GI50 [47]: 1.65 µM
TGI [47]: 10.6 µM
GI50 [48]: 1.19 µM
TGI [48]: > 100 µM
GI50 [49]: 3.06 µM
TGI [49]: 14.4 µM
GI50 [50]: 2.41 µM
TGI [50]: 15 µM
GI50 [51]: 3.04 µM
TGI [51]: 35.5 µM
GI50 [52]: 1.09 µM
TGI [52]: 12.7 µM
GI50 [53]: 2.06 µM
TGI [53]: 9.3 µM
GI50 [54]: 0.335 µM
TGI [54]: 12 µM
GI50 [55]: 2.18 µM
TGI [55]: 11.8 µM
